In data set [1] the test system is mice. The experiment in a line: Methamphetamine Group Toxicity. As to conditions: Mus musculus, po, 5 h, read-out: Methamphetamine Group Toxicity, ED50.
Data set [2] has as its system mice. The experiment in a line: Suppression of Fighting Behavior. It counts as in vivo, dd-strain, female. The note with it: Mus musculus, po, 60 minutes prior to electric foot-shock; dose to suppress 50 percent of fighting pairs. As for the experimental part: 125, p. 28 ff. (1959). […] The ED50, the dose required to suppress 50 percent of fighting pairs, was determined graphically.

Data set [3] deals with mice. The experiment in a line: Reserpine Potentiation. It counts as in vivo, dd-strain, female. As to conditions: Mus musculus, po, 30 minutes before reserpine 10 mg./kg. i.p.; dose potentiating reserpine effect by 30 percent 15 minutes after reserpine; read-out: Reserpine Potentiation PD30. As for the experimental part: Reserpine potentiation was measured by the method described by M. D. Aceto in "Toxicology and Applied Pharmacology," vol. 7, p. 329 ff. (1965). […] The degree of blepharoptosis of both eyes was observed 15, 60, 120 and 180 minutes after the administration of reserpine.

Data set [4] deals with mice. Put plainly: Antimescaline Effect. It is filed as in vivo, female. As to conditions: Mus musculus, po, 60 minutes prior to mescaline sulfate 30 mg./kg. i.p.; prevention of scratching in 50 percent of animals. The method, then: A modification of the method of R. A. Turner [Screening Method in Pharmacology, Edited by R. A. Turner, p. 73, Academic Press (1965)] was used to study the prevention of scratching episodes induced by mescaline. The test compound was given to groups each of 6 female mice orally 60 minutes prior to treatment with mescaline sulfate (30 mg./kg. of body weight, intraperitoneal).

For data set [5], the system named is mice. The experiment in a line: Suppression of Spontaneous Motility. It counts as in vivo, dd-strain, male. The note with it: Mus musculus, ip; counted for 20 minutes, 40 minutes after administration; dose for 50 percent suppression. The method, then: The spontaneous motility of mice was counted by magnetic counter of photocell method according to P. B. Dews in "British Gournal of Pharmacology", vol. 8, p. 46 ff. (1953). Forty minutes after the intraperitoneal administration of the test compound, the spontaneous motility was counted for 20 minutes.

The nature of data set [6]: Acute Toxicity. The arrangement: species or system mice, female. The note with it: mouse, in vivo, po; lethal rate within two days. As for the experimental part: The test compound was orally administered to groups each of 5 female mice respectively. The LD50 was calculated from the lethal rate (50 percent) within two days after administration of the test compound.

ED50, ED30 and LD50 data for 2 compounds are collected here from patent US3932423A, “Imidazolido(1,5-c)thiazolidine-3-spiro-4-piperidines” (Yoshitomi Pharmaceutical Industries, priority 1973, dated 1976).

Usually ED50 stands for the midpoint of the dose-response relation. Broadly, the LD50 is the dose expected to kill half of the subjects tested. The low end stands for a more toxic substance, the high end for a less toxic substance.

Molecules are shown by their SMILES.

For the compound `CN1C(=O)C2CSC3(CCN(CCCC(=O)c4ccc(F)cc4)CC3)N2C1=O` (stereo not drawn) [Compound A, 5,7-dioxo-6-methylimidazolido[1,5-c]thiazolidine-3-spiro-4'-[1'-(4-p-fluorophenyl-4-oxobutyl)piperidine]], the median effective dose (ED50) amounted to 1.1 mg/kg in data set [1], 2.6 mg/kg in data set [2], 0.1 mg/kg in data set [4] and 0.1 mg/kg in data set [5]. In data set [3], the ED30 was determined as 1.9 mg/kg. Also, in data set [6], the LD50 at 48 h was above 1000 mg/kg.

In the case of `NC(=O)C1(N2CCCCC2)CCN(CCCC(=O)c2ccc(F)cc2)CC1` [Floropipamide], the median effective dose (ED50) worked out at 9.2 mg/kg in data set [1], 5.6 mg/kg in data set [2], 1 mg/kg in data set [4] and 1 mg/kg in data set [5]. Besides, in data set [3], the ED30 was 2.5 mg/kg. This compound also displayed a 50% lethal dose (LD50) at 48 h in data set [6] above 1000 mg/kg.
